{"source": "patent US20250151721A1", "about": "“MOSQUITO ATTRACTANT COMPOSITIONS THAT MIMIC HUMAN ODOR IN THE MOSQUITO BRAIN” (TRUSTEES OF PRINCETON UNIVERSITY, priority 2021, published 2025)", "key": {"[1]": {"tested_on": "broadly tuned (B) glomerulus of the antennal lobe", "assay": "Two-photon calcium imaging of odour-evoked activity in the broadly tuned (B) glomerulus", "assay_type": "in vivo, Aedes aegypti", "source_text": "(§1) We designed a two-photon microscope that incorporates both resonant scanning^69 and remote focusing^70,71 to achieve rapid, volumetric, in vivo neural imaging. Remote focusing allows rapid switching of the imaging plane by moving a small, lightweight mirror located upstream in the imaging path. […] In diagnostic tests, transition times for switching between two planes were less than 6 ms.\n(§2) We custom-designed a mosquito holder with a 3D-printed plastic frame and thin stainless-steel plate (FIG. 2C, thickness 0.001 inch). A tiny mosquito-head-sized hole was photo-chemically etched on the plate (ETCHIT Company). To prepare for imaging, we anaesthetized a female on ice for ˜1 min, pushed the anterodorsal side of her head into the hole, and fixed it with UV glue (RapidFix 6121830ES). The antennae, maxillary palps, and proboscis remained below the metal plate and contacted neither the plate nor the glue. We added room-temperature saline (103 mM NaCl, 3 mM KCl, 5 mM TES, 26 mM NaHCO3, 1 mM NaH2PO4, 1.5 mM CaCl2), 4 mM MgCl2, 10 mM Trehalose, 10 mM Glucose; pH 7.1) to the holder and used sharp forceps to remove a section of the head capsule (including both cuticle and the edge of the eyes) from the part of the head protruding through the metal plate. During imaging, we continuously perfused saline bubbled with carbogen (5% CO2, 95% O2) through the holder and across the open head capsule at 125 ml/hour.\nWe used the ScanImage^72 package in Matlab to control the microscope and acquire images. For each individual, we chose either the right or left antennal lobe (AL) and recorded movies of odour-evoked activity (starting 7-30 sec before and continuing 20-60 sec after synthetic-odorant puffs; ˜30 sec before, ˜140 sec after puffs of complex extract). The movies covered the entire AL in Z-stacks that were 4 μm apart at 128×128 pixel resolution (22 stacks total, green channel only for the orco-T2A-QF2-QUAS-GCaMP 6f strain; 28 stacks, green and red channels for the brp>jGCaMP7s strain). […] Laser power as measured at the sample plane was 10 mW. […]"}, "[2]": {"tested_on": "human-sensitive (H) glomerulus of the antennal lobe", "assay": "Two-photon calcium imaging of odour-evoked activity in the human-sensitive (H) glomerulus", "assay_type": "in vivo, Aedes aegypti", "settings": "for response of H glomerulus: panel of 50 single odorants at approximately the same vapour-phase concentration (that of sulcatone in 1× human odour)", "source_text": "as §1, §2\n(§3) We used the ScanImage^72 package in Matlab to control the microscope and acquire images. For each individual, we chose either the right or left antennal lobe (AL) and recorded movies of odour-evoked activity (starting 7-30 sec before and continuing 20-60 sec after synthetic-odorant puffs; ˜30 sec before, ˜140 sec after puffs of complex extract). The movies covered the entire AL in Z-stacks that were 4 μm apart at 128×128 pixel resolution (22 stacks total, green channel only for the orco-T2A-QF2-QUAS-GCaMP 6f strain; 28 stacks, green and red channels for the brp>jGCaMP7s strain). The resulting voxel size was approximately 0.9×0.8×4 μm^3, and the volumetric imaging rate was 3.76 Hz for the orco-T2A-QF2-QUAS-GCaMP 6f strain and 2.95 Hz for the brp>jGCaMP7s strain. We increased the laser power exponentially with depth (ranging from 7.5 to 10 mW) to account for light decay and scattering in deeper tissues. Laser power as measured at the sample plane was 10 mW. After recording odour-evoked activity, we acquired 30-40 high-resolution structural volumes at high laser power to aid registration and downstream analysis. For this, we imaged the AL in 120-180 z-stacks, 1 μm apart, at 256×256 pixel resolution.\nThe three target glomeruli could be reliably identified across brains based on position and responses to key reference odorants. Human-sensitive glomerulus H was located in the anterior AL, adjacent to a landmark non-Orco glomerulus in our two-photon images (unlabeled area surrounded by Orco+ glomeruli; FIGS. 8A-B), and responded to 10^−2 heptanal. Animal-sensitive glomerulus A was located in the dorsal AL and responded to 10^−2 phenol. Broadly tuned glomerulus B was located in the posterior-medial AL and responded to 10^−2 benzaldehyde. Glomeruli H, A, and B tentatively correspond to V3, MD2, and PD1, respectively, in a previously published atlas^35, but we cannot be sure without molecular markers.\nWe used area under df/f curves as a metric for neural activity. For single-odorant stimuli, which evoked single df/f peaks, we defined the peak boundaries by first locating the max (for activation) or min (for inhibition) points in the df/f curve and then extending from the max/min point until df/f dropped to background levels. For natural odour extracts, which sometimes evoked multiple peaks, we integrated df/f values from desorption of the focusing trap to the end of neural recording (0 to 140 sec). […]"}, "[3]": {"tested_on": "animal-sensitive (A) glomerulus of the antennal lobe", "assay": "Two-photon calcium imaging of odour-evoked activity in the animal-sensitive (A) glomerulus", "assay_type": "in vivo, Aedes aegypti", "settings": "for activation of A glomerulus: panel of 50 single odorants at approximately the same vapour-phase concentration", "source_text": "We designed a two-photon microscope that incorporates both resonant scanning^69 and remote focusing^70,71 to achieve rapid, volumetric, in vivo neural imaging. Remote focusing allows rapid switching of the imaging plane by moving a small, lightweight mirror located upstream in the imaging path.\nas §2, §3\nWe used area under df/f curves as a metric for neural activity. For single-odorant stimuli, which evoked single df/f peaks, we defined the peak boundaries by first locating the max (for activation) or min (for inhibition) points in the df/f curve and then extending from the max/min point until df/f dropped to background levels. For natural odour extracts, which sometimes evoked multiple peaks, we integrated df/f values from desorption of the focusing trap to the end of neural recording (0 to 140 sec)."}, "[4]": {"tested_on": "Orco+ glomeruli of the antennal lobe", "assay": "Two-photon calcium imaging of odour-evoked activity across Orco+ glomeruli", "assay_type": "in vivo, Aedes aegypti", "source_text": "as §1\nWe custom-designed a mosquito holder with a 3D-printed plastic frame and thin stainless-steel plate (FIG. 2C, thickness 0.001 inch). A tiny mosquito-head-sized hole was photo-chemically etched on the plate (ETCHIT Company). To prepare for imaging, we anaesthetized a female on ice for ˜1 min, pushed the anterodorsal side of her head into the hole, and fixed it with UV glue (RapidFix 6121830ES). The antennae, maxillary palps, and proboscis remained below the metal plate and contacted neither the plate nor the glue. […]\nWe used the ScanImage^72 package in Matlab to control the microscope and acquire images. For each individual, we chose either the right or left antennal lobe (AL) and recorded movies of odour-evoked activity (starting 7-30 sec before and continuing 20-60 sec after synthetic-odorant puffs; ˜30 sec before, ˜140 sec after puffs of complex extract). […] Laser power as measured at the sample plane was 10 mW. […]"}, "[5]": {"tested_on": "female Aedes aegypti mosquitoes", "assay": "Two-port olfactometer host-preference assay", "assay_type": "in vivo", "settings": "in the absence of human or animal odour", "experimental": "We tested the host preference of mated, non-blood-fed, 7-14 day old females that had been housed overnight with access to water only (no sucrose). We used a two-port olfactometer for choice and no-choice tests involving live hosts (FIGS. 1A and C) or sleeves/hair (FIGS. 1B and D) as previously described3. We first acclimated 75-100 female mosquitoes in the olfactometer for 5 min, then opened a sliding door and activated a fan to pull air through the two host chambers and expose mosquitoes to host odour. Mosquitoes were able to fly upwind, sample the host-odour streams, and choose to enter either host port. After 6 min, we counted the number of mosquitoes trapped in each host port. For two-choice trials with live hosts, one chamber contained a human hand and arm up to the elbow (belonging to one of six 22-43 year old individuals: 3 female, 3 male; 3 Caucasian, 2 East Asian, 1 South Asian). The human exhaled gently near the opening of the chamber once every 30 sec to provide a source of breath. The other chamber contained a guinea pig (Cavia porcellus; one of two 4-5 year old pigmented females), rat (Rattus norvegicus domesticus; one of two 2-6 month old Sprague-Dawley males), or button quail (Coturnix coturnix; one 2-3 year old female). […]"}, "[6]": {"settings": "concentrations calibrated to about ⅕th of activity evoked by 1× human odour, paraffin oil"}, "[7]": {"settings": "synthetic odorants singly or as combo, vapour-phase concentrations characteristic of 1× human odour, 3-sec puffs"}}, "data": [{"smiles": "CCCCCCO", "note": "[1-hexanol]", "values": [{"measurement": "activity evoked in B glomerulus", "setting": "[1]; [6]", "result": "evoked activity in their cognate glomeruli"}]}, {"smiles": "CCCCCCCCCC=O", "note": "[Decanal]", "values": [{"measurement": "activity evoked in H glomerulus", "setting": "[2]; [6]", "result": "evoked activity in their cognate glomeruli"}, {"measurement": "activity evoked in H glomerulus", "setting": "[2]; [7]", "result": "strong and prolonged activity"}]}, {"smiles": "CC(=O)C(C)O", "note": "(stereo not shown) [acetoin]", "values": [{"measurement": "activation of A glomerulus", "setting": "[3]", "result": "strongly activated"}, {"measurement": "activity evoked in A glomerulus", "setting": "[3]; physiological concentrations (as in 1× human odour)", "result": "too low to evoke consistent activity"}, {"measurement": "activation of B glomerulus", "setting": "[1]; synthetic odorants singly or as combo, vapour-phase concentrations characteristic of 1× human odour", "result": "strongly activated"}]}, {"smiles": "O=Cc1ccccc1", "note": "[benzaldehyde]", "values": [{"measurement": "response of B glomerulus to reference odorant", "setting": "[1]; 10^−2 dilution", "result": "responded"}]}, {"smiles": "CS(C)(=O)=O", "note": "[dimethyl sulfone]", "values": [{"measurement": "activation of A glomerulus", "setting": "[3]", "result": "strongly activated"}]}, {"smiles": "CCCCCCC=O", "note": "[heptanal]", "values": [{"measurement": "response of H glomerulus to reference odorant", "setting": "[2]; 10^−2 dilution", "result": "responded"}]}, {"smiles": "CCCCCC=O", "note": "[hexanal]", "values": [{"measurement": "response of H glomerulus", "setting": "[2]", "result": "no response"}]}, {"smiles": "Cc1ccc(O)cc1", "note": "[p-cresol]", "values": [{"measurement": "activation of A glomerulus", "setting": "[3]", "result": "strongly activated"}]}, {"smiles": "Oc1ccccc1", "note": "[phenol]", "values": [{"measurement": "response of A glomerulus to reference odorant", "setting": "[3]; 10^−2 dilution", "result": "responded"}, {"measurement": "activation of A glomerulus", "setting": "[3]", "result": "strongly activated"}]}, {"smiles": "CC(=O)CCC=C(C)C", "note": "[sulcatone]", "values": [{"measurement": "glomerular activity in response to the compound", "setting": "[4]; at its concentration in 1× human odour", "result": "did not see consistent activity"}, {"measurement": "glomerular activity in response to the compound", "setting": "[4]; higher doses (data not shown)", "result": "several glomeruli responded"}]}, {"smiles": "O=C=O", "note": "[synthetic CO2, CO2]", "values": [{"measurement": "response of female mosquitoes in no-choice olfactometer trials", "setting": "[5]", "result": "minimal"}]}, {"smiles": "CCCCCCCCCCC=O", "note": "[undecanal]", "values": [{"measurement": "response of H glomerulus", "setting": "[2]", "result": "strong activity"}, {"measurement": "duration of H glomerulus activity beyond the 3-second puff", "setting": "[2]; single odorant at equal vapour-phase concentration", "result": "≥ 40", "unit": "s"}, {"measurement": "activity evoked in H glomerulus", "setting": "[2]; [7]", "result": "strong and prolonged activity"}]}]}
